Measured values as given in article PMC6930524, “A Prospective Repurposing of Dantrolene as a Multitarget Agent for Alzheimer’s Disease” (Molecules, 2019).

Tests used:
[1] = physchem; details: pH 7.4
Method: In order to check the hydrolytic stability of DAN in buffered media, we used a HPLC method to check the stability of 20 μM DAN in phosphate buffered saline (PBS) at physiological pH of 7.4, at 37 °C.
The chromatographic data were acquired using the Waters Breeze software (version 3.20). Analyses were performed on a Phenomenex C18 column (150 × 4.6 mm i.d., 3 µm particle size; Phenomenex srl, Castel Maggiore, Italy) using a mobile phase of methanol/water (75:25 v/v), with aqueous formic acid 0.1%. The used flow rate was 0.5 mL/min and the injection volume was 20 µL. Wavelength UV-Vis detector was set at 380 nm.
The chemical stability of dantrolene sodium was evaluated in a phosphate buffered saline solution pH 7.4 (10 mM HPO4^2−/H2PO4^−, 100 mM NaCl) at 37 °C. Samples were tested in triplicate starting from three different stocks solution (1 mM), which were prepared separately.

[2] = target: T1, BChE from human serum (hBChE) (Homo sapiens, UniProt P06276); assay: hBChE inhibition, Ellman's spectrophotometric assay; type: biochemical; details: mean ± SEM of three independent experiments
T1 construct: BChE from human serum (50 U/mg); purchased Sigma-Aldrich Europe (Milan, Italy); host or cells: human serum
Method: An already published method was used to apply the Ellman’s spectrophotometric assay to the 96-well plate technique. […] Experiments were performed in duplicate in transparent, flat-bottomed polystyrene 96-well microtiter plates, and readings made with Tecan Infinite M1000 Pro instrument.

[3] = test system: SH-SY5Y cells; assay: DCF-DA assay of dopamine-induced ROS production; type: cell-based; details: dopamine 10 nM insult, compound 100 nM
Method: In order to get further information about the potential neuroprotective effects exerted by DAN, we tested it in a 2′,7′-dichlorofluorescin diacetate (DCF-DA) fluorescence-based assay, measuring the production of ROS induced by dopamine in cultured SH-SY5Y cells. Immortalized neuroblastoma cells are a widely used model for neuroprotection assays, while dopamine at a concentration of 10 nM acts as an inducer of oxidative stress, being metabolized by MAOs to form hydrogen peroxide. Once hydrolyzed and oxidized, DCF acts as the fluorescing probe of the OS state of cells. In the presence of an antioxidant, or even of a MAO inhibitor, ROS burden is lowered and DCF fluorescence decreased. […] Its activity is completely superimposable to that of phenelzine, a nonselective MAO inhibitor used as a positive control in Figure 5B [41]. […]
ROS production in SH-SY5Y cell line was detected using Cellular Reactive Oxygen Species Detection Assay Kit ([…]; Abcam, Cambridge, UK). […] After washing, the fluorescence was read immediately, and the readings were taken every 15 min in a 60-min time interval. Fluorescence signal at 535 nm (excitation at 485 nm) was measured using Tecan Infinite M1000 Pro (Tecan, Mannedorf, Switzerland).

[4] = design: method as in PMID 11735355; details: cited from earlier work

T1 sequence (P06276 29-602): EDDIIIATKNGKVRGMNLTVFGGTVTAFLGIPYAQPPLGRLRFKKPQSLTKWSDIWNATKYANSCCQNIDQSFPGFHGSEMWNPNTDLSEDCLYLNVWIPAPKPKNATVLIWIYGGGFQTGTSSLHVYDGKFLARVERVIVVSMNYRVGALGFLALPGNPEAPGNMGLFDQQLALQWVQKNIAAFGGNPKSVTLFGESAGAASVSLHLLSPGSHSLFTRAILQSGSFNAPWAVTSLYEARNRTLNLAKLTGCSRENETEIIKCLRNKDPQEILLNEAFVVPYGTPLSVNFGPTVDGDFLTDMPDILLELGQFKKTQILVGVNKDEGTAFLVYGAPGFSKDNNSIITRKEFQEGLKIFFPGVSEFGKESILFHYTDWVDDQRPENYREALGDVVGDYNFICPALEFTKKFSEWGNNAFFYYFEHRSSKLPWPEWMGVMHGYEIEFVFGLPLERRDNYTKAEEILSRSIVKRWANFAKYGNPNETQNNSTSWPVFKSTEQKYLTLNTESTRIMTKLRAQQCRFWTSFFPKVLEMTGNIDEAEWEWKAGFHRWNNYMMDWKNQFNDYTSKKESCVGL

O=C1CN(/N=C/c2ccc(-c3ccc([N+](=O)[O-])cc3)o2)C(O)=N1 [Dantrolene]
recovery at 60 h, 20 μM [1]: 92%
hBChE IC50 [2]: No inhibition
reduction of ROS oxidation of DCF [3]: very effective
antioxidant potency, Fe3+/Fe2+ reduction [4]: high antioxidant potency
